Read-outs that look alike come from different tables or passages of the source. Where a SMILES comes first, the peptide text is derived from it. [ ]: non-standard residue; d: D form. Dip = N[C@H](C(=O)O)C(c1ccccc1)c1ccccc1; Orn = NCCC[C@H](N)C(=O)O
Legend:
[1] = Affinity chromatography on CS-Sepharose; type: binding; settings: NaCl needed to elute peptide from CS-Sepharose; mean of four experiments
Experimental: (§1) Two different Sepharose affinity columns were prepared, using HS and CS as ligands. The ligands were mixed with swollen CNBr-activated Sepharose 4B. Non-reactive groups were blocked with 0.1 M Tris-HCl, pH 8.0 and the gel was washed before packing. The peptides were dissolved in 5 mM phosphate-buffer, pH 7.4 at a concentration of 0.5 mg/ml, and 50 μl samples were applied. A gradient of NaCl was used to elute the different peptides from the columns using a GradiFrac from Amersham Pharmacia Biotech (Uppsala, Sweden) at a flow rate of 1.0 ml/min. The peptides were detected using a monitor UV-1 from Amershan Pharmacia Biotech (Uppsala, Sweden).

[2] = Affinity chromatography on HS-Sepharose; type: binding; settings: NaCl needed to elute peptide from HS-Sepharose; mean of four experiments
Experimental: as §1

[3] = test system: human red blood cells (RBC); parameters: method as in Eliassen et al. [69]; settings: hemolysis; ref Eliassen et al. [69]; cited from earlier work
[4] = MTT viability assay, MRC-5 fibroblast-like cells; type: cell-based; settings: human
Experimental: (§2) The colorimetric MTT viability assay was used to investigate the cytotoxic effect of the peptides. The HT-29, MT-1, Kelly, HUVEC and MRC-5 cells were seeded at a concentration of 2 × 10^5 cells/ml, 1.5 × 10^5 cells/ml, 2 × 10^5 cells/ml, 1 × 10^5 cells/ml and 1 × 10^5 cells/ml in a volume of 0.1 ml in 96-well plates, respectively. CHO-K1 and pgsA-745 cells were seeded at a concentration of 1 × 10^5 cells/ml. The cells were allowed to adhere overnight in complete medium. Before adding different concentrations of the peptides (10-500 μg/ml) to the cells, the culture medium was removed and the cells were washed twice in serum-free culture medium. The non-adherent lymphoma cell lines were seeded at a density of 4 × 10^5 cells/ml using serum-free medium. After incubating the cells with peptides for 30 minutes at 37°C, 0.5 mg MTT-solution was added to each well and the incubation was continued for 2 hours. A volume of 70 μl or 130 μl per well was removed from the non-adherent and adherent cells, respectively. In order to dissolve the formazan crystals, 100 μl of 0.04 M HCl in isopropanol was added and the plates were shaken for 1 hour on a Thermolyne Roto Mix (Dubuque, IA) at room temperature. The optical density was measured on a microplate reader (VERSAmax™ Molecular Devices, CA). Cells treated with 1% Triton X-100 in serum-free medium was used as positive control for 100% cell death, whereas cells in serum free medium were used as negative control. Cell survival was determined from the ΔA590 nm relative to the negative control (100% living cells) and expressed as 50% inhibitory concentration (IC50).

[5] = test system: HUVEC; type: cell-based, human; settings: 2 h
Experimental: as §2

[6] = test system: pgsA-745; type: cell-based, Chinese hamster; settings: for IC50: 2 h
Experimental: as §2

[7] = test system: CHO-K1; type: cell-based, Chinese hamster; settings: 2 h
Experimental: as §2

[8] = test system: human red blood cells (RBC); type: cell-based; settings: red cells of human, 1 h
Experimental: The hemolytic activity of the peptides was determined using freshly isolated human red blood cells (RBC) as previously described. Briefly, venous blood was collected, transferred to a tube containing heparin (10 U/ml) and centrifuged at 1500 rpm for 10 minutes in order to isolate the red blood cells. The red blood cells were washed three times with PBS (35 mM phosphate buffer with 150 mM NaCl, pH 7.4) by centrifugation at 1500 rpm for 10 minutes, and adjusted to 10% hematocrit with PBS. Peptide solutions were added to yield a final concentration range of the peptide from 1000 μg/ml to 1 μg/ml and a red blood cell concentration of 1%. The resulting suspension was incubated with agitation for 1 hour at 37°C. After incubation the suspension was centrifuged at 4000 rpm for 5 minutes, and the released hemoglobin were monitored by measuring the absorbance of the supernatant at 405 nm on a microplate reader (VERSAmax™ Molecular Devices, CA). PBS and 1% Triton X-100 were used as negative and positive controls, respectively. Peptide concentrations corresponding to 50% hemolysis (EC50) were determined from dose-response curves.

[9] = test system: CHO-K1 cells; type: cell-based, Chinese hamster
Experimental: as §2
In order to investigate whether soluble CS or HS would interfere with the cytotoxic activity, the peptides were added to cultures of CHO-K1 cells together with exogenous CS and HS. […] The cytotoxic activity of LTX-318 was not inhibited in the presence of soluble CS or HS (Figure 5c).

[10] = test system: MRC-5; assay: MTT viability assay, MRC-5 fibroblast-like cells; type: cell-based; settings: 2 h
Experimental: as §2

[11] = test system: Ramos; type: cell-based; settings: 2 h
Experimental: as §2

[12] = test system: KMM-1; type: cell-based; settings: 2 h
Experimental: as §2

[13] = test system: lymphoma cells; type: cell-based; settings: 2 h
Experimental: as §2

[14] = test system: Kelly; type: cell-based; settings: for IC50: 2 h
Experimental: as §2

[15] = test system: Sudhl-4; type: cell-based; settings: 2 h
Experimental: as §2

[16] = test system: U-266; type: cell-based; settings: 2 h
Experimental: as §2

[17] = test system: MT-1; type: cell-based; settings: 2 h
Experimental: as §2

[18] = test system: HT-29; type: cell-based; settings: 2 h
Experimental: as §2

[19] = test system: KMS-5; type: cell-based; settings: 2 h
Experimental: as §2

[20] = test system: carcinoma cell lines HT-29 and MT-1; assay: MTT viability assay, carcinoma cell lines HT-29 and MT-1; type: cell-based; settings: selectivity versus HUVEC and MRC-5
Experimental: as §2, with “Cells treated with 1% Triton X-100 in serum-free medium was used as positive control for 100% cell death, whereas cells in serum free medium were used as negative control. Cell survival was determined from the ΔA590 nm relative to the negative control (100% living cells) and expressed as 50% inhibitory concentration (IC50).” left out

[21] = test system: tumor; parameters: method as in PMID 20422410; settings: cited from earlier work

IC50 [6] [µM] | IC50 [8] [µM] | IC50 [11] [µM] | IC50 [12] [µM] | IC50 [13] [µM] | IC50 [14] [µM] | IC50 [15] [µM] | IC50 [16] [µM] | IC50 [17] [µM] | IC50 [18] [µM] | IC50 [19] [µM] | SMILES | Elution concentration from CS [1] [mM NaCl] | Elution concentration from HS [2] [mM NaCl] | IC50 [5] [µM] | IC50 [7] [µM] | IC50 at 30 min [4] [µM] | inhibitory effect of soluble CS and HS on cytotoxic activity [9] | inhibitory effect of soluble HS on cytotoxic activity compared to CS [9] | other results
 |  |  |  |  |  |  |  |  |  |  | CC[C@H](C)[C@@H]1NC(=O)[C@H](CO)NC(=O)[C@@H]2CCCN2C(=O)[C@H](C)NC(=O)CNC(=O)[C@H](CC(C)C)NC(=O)[C@H](CCCCN)NC(=O)[C@H](CCCCN)NC(=O)[C@H](CCSC)NC(=O)[C@H](CCCNC(=N)N)NC(=O)[C@H](Cc2c[nH]c3ccccc23)NC(=O)[C@H](CCC(N)=O)NC(=O)[C@H](Cc2c[nH]c3ccccc23)NC(=O)[C@H](CCCNC(=N)N)NC(=O)[C@H](CCCNC(=N)N)NC(=O)[C@@H](NC(=O)[C@H](CCCCN)NC(=O)[C@@H](N)Cc2ccccc2)CSSC[C@@H](C(=O)N[C@H](C(=O)N[C@@H](CCCNC(=N)N)C(=O)N[C@@H](CCCNC(=N)N)C(=O)N[C@@H](C)C(=O)N[C@@H](Cc2ccccc2)C(=O)O)C(C)C)NC(=O)[C@H]([C@@H](C)O)NC1=O [LfcinB, bovine lactoferricin, reference compound] | 130 ± 9 | 417 ± 4 |  |  |  |  |  | IC50 [3]: > 500 µM; IC50 at 30 min ([4]; MTT, 30 min incubation, serum-free, read-out: MRC-5 IC50): > 160 µM
176 ± 3 | > 695 | 82 ± 11 | 111 ± 1 | 73 to 106 | 78 ± 7 | 110 ± 5 | 106 ± 17 | 216 ± 36 | 248 ± 5 | 73 ± 5 | NCCC[C@H](NC(=O)[C@H](Cc1c[nH]c2ccccc12)NC(=O)[C@H](Cc1c[nH]c2ccccc12)NC(=O)[C@H](CCCN)NC(=O)[C@H](CCCN)NC(=O)[C@@H](NC(=O)[C@H](Cc1c[nH]c2ccccc12)NC(=O)[C@H](CCCN)NC(=O)[C@@H](N)CCCN)C(c1ccccc1)c1ccccc1)C(N)=O [LTX-318, OOWDipOOWWO-NH2] (H-[Orn][Orn]W[Dip][Orn][Orn]WW[Orn]-NH2) |  |  | > 347 | 145 ± 6 | > 347 |  |  | IC50 against endothelial cells (no IC50 value at the highest concentration tested) [5]: > 500 µg/mL; cytotoxic activity in the presence of soluble CS or HS [9]: not inhibited; IC50 against fibroblast cells (no IC50 value at the highest concentration tested) [10]: > 500 µg/mL
22 ± 3 | > 695 | 10 ± 1.7 | 17 ± 2 | 10 to 23 | 14 ± 1 | 23 ± 2 | 13 ± 1.5 | 31 ± 3 | 38 ± 3 | 10 ± 1.5 | NCCCC[C@H](NC(=O)[C@@H](NC(=O)[C@H](Cc1c[nH]c2ccccc12)NC(=O)[C@H](CCCCN)NC(=O)[C@H](CCCCN)NC(=O)[C@H](Cc1c[nH]c2ccccc12)NC(=O)[C@H](Cc1c[nH]c2ccccc12)NC(=O)[C@H](CCCCN)NC(=O)[C@@H](N)CCCCN)C(c1ccccc1)c1ccccc1)C(N)=O [LTX-315, KKWWKKWDipK-NH2] (H-KKWWKKW[Dip]K-NH2) |  |  | 28 ± 1 | 22 ± 5 | 41 ± 3 | only a negligible inhibitory effect | much higher inhibitory effect | EC50 (50% hemolysis) [8]: > 1000 µg/mL
54 ± 2 | > 695 | 30 ± 2 | 40 ± 6 | 31 to 46 | 28 | 46 ± 6 | 36 ± 6 | 73 ± 2 | 75 ± 5 | 31 | NCCCC[C@H](NC(=O)[C@H](Cc1c[nH]c2ccccc12)NC(=O)[C@H](CCCCN)NC(=O)[C@H](CCCCN)NC(=O)[C@@H](NC(=O)[C@H](Cc1c[nH]c2ccccc12)NC(=O)[C@H](CCCCN)NC(=O)[C@H](CCCCN)NC(=O)[C@@H](N)Cc1c[nH]c2ccccc12)C(c1ccccc1)c1ccccc1)C(N)=O [LTX-302, WKKWDipKKWK-NH2] (H-WKKW[Dip]KKWK-NH2; N-terminus assumed) | 187 ± 13 | 330 ± 9 | 123 ± 9 | 42 ± 7 | 126 ± 11 | only a negligible inhibitory effect | much higher inhibitory effect | Ratio (IC50) pgsA-745/CHO-K1 [6]: 1.28; fold higher activity against carcinoma cell lines in comparison to endothelial and fibroblast cells [20]: ~ 2 fold; tumor response after intratumoral injection [21]: complete regression of the tumor; fold higher activity against neuroblastoma cell line in comparison to endothelial and fibroblast cells ([14]; selectivity versus HUVEC and MRC-5): ~ 4.5 fold

From publication PMC3080343, “Small lytic peptides escape the inhibitory effect of heparan sulfate on the surface of cancer cells” (BMC Cancer, 2011)
